From patent US8008331B2, “Benzothiazol-2-one derivatives as lipase and phospholipase inhibitors” (Sanofi-Aventis, priority 2005, dated 2011)

What follows are molecules tested against T1, endothelial lipase (EL) (Homo sapiens, UniProt Q9Y5X9) (assay: Further EL inhibition assay). Conditions: phospholipase substrate (Bodipy-labelled phosphocholine), 37° C., 90 minutes, EL from conditioned medium of recombinant cell lines (CHO, HEK293).
T1 construct: made in house; host or cells: recombinant cell lines (CHO, HEK293); concentrated conditioned medium
T1 sequence (Q9Y5X9 21-500): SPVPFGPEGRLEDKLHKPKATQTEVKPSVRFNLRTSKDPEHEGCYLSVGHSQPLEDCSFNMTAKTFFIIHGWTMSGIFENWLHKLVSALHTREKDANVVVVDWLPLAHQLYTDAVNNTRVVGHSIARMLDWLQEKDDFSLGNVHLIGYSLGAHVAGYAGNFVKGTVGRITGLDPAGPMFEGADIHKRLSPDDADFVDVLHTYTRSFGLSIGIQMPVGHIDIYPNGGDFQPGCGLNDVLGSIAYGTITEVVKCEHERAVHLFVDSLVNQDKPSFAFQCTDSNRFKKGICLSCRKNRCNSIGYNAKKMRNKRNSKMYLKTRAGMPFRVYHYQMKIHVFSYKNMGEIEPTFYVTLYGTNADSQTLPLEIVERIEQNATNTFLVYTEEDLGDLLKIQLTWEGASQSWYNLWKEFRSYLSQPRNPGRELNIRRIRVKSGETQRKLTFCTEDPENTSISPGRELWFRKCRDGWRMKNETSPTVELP
Format: biochemical
Text: EL is released as secretory protein in high concentration into cell culture medium (conditioned medium) by recombinant cell lines (CHO, HEK293). This is employed as enzyme solution after concentration.
The enzymatic activity is reduced as a function of the inhibitor concentration used, and the inhibitor concentration at which a half-maximum enzymatic activity is observed is called IC50.
The phospholipase-specific substrate 1,2-bis(4,4-difluoro-5,7-dimethyl-4-bora-3a,4a-diaza-s-indacene-3-undecanoyl)-sn-glycero-3-phosphocholine, (manufacturer Molecular Probes) is used to characterize the enzymatic activity of endothelial lipase and the effect of inhibitors. Hydrolysis of the A1 ester linkage of this phospholipid by the enzyme liberates the fluorescent dye Bodipy which can be detected after separation by thin-layer chromatography on an HPTLC plate (silica gel 60, Merck) or directly in the reaction vessel by measuring the fluorescence.
The substrate solution is prepared by dissolving 100 μg of 1,2-bis(4,4-difluoro-5,7-dimethyl-4-bora-3a,4a-diaza-s-indacene-3-undecanoyl)-sn-glycero-3-phosphocholine (manufacturer Molecular Probes) in 100 μl of DMSO and taking up in 2.4 mg of tripalmitin (Sigma) in 393 μl of chloroform which comprises 20 mg/ml DOP-choline (1,2-dioleoyl-sn-glycero-3-phosphocholine). 39.3 μl of this lipid mixture are transferred into a fresh reaction vessel, and the solvent is evaporated off. The lipid mixture is dissolved in 4 ml of 200 mM TRIS-HCl, 150 mM sodium chloride, pH=7.4, by sonication twice. The subsequent enzymic reaction takes place at 37° C. for 90 minutes. For this purpose, 20 μl of the substrate solution are incubated with 2 μl of inhibitor of appropriate concentration (dissolved in 10% DMSO, using 10% strength DMSO solution for control) and 2 μl of enzyme solution (conditioned medium). The 4 μl of the assay mixture are loaded onto an HPTLC plate (silica gel 60, Merck), and the liberated fluorescent dye is separated for detection with an eluent (diethyl ether:petroleum benzine:acetic acid [78:22:1]). After evaporation of the eluent, the plate is read in a fluorescence scanner. An increased liberation of the fluorescent dye in the uninhibited reaction is to be observed as a measure of the enzymic activity.
For `CCCCCCNC(=O)n1c(=O)sc2ccccc21` [Example 1, 2-Oxobenzothiazole-3-hexylcarboxamide], the IC50 was 0.16 µM.
`CCCCCCCNC(=O)n1c(=O)sc2ccccc21` [Example 2, 2-Oxobenzothiazole-3-heptylcarboxamide] showed an IC50 of 0.051 µM.
`Cc1ccccc1CNC(=O)n1c(=O)sc2ccccc21` [Example 3, 2-Oxobenzothiazole-3-(2-methylbenzyl)carboxamide] was tested, and the IC50 was 0.052 µM.
In the case of `Cc1cccc(CNC(=O)n2c(=O)sc3ccccc32)c1` [Example 4, 2-Oxobenzothiazole-3-(3-methylbenzyl)carboxamide], the IC50 is reported as 0.215 µM.
Molecule `CCCCCCNC(=O)n1c(=O)sc2cc(Br)ccc21` [Example 5, 6-Bromo-2-oxobenzothiazole-3-hexylcarboxamide] has an IC50 of 0.435 µM.
With `CCCCCCCNC(=O)n1c(=O)sc2ccc(Cl)cc21` [Example 6, 5-Chloro-2-oxobenzothiazole-3-heptylcarboxamide] the IC50 was 0.014 µM.
Molecule `CCCCCCNC(=O)n1c(=O)sc2ccc(C(F)(F)F)cc21` [Example 7, 2-Oxo-5-trifluoromethylbenzothiazole-3-hexylcarboxamide] has an IC50 of 0.12 µM.
